According to patent publication US12109176B1, “Effect of glycerol on biofilm forming bacteria and fungi that changes the microbes sensitivity to pro and anti-biofilm non-toxic, non-bonded plasma amino acids and amino acid derivatives” (priority 2023, dated 2024):
“Also recorded” adds a separate entry of the source.

Assays:
[1] = system: bacterial and fungal biofilm; assay: In vitro testing on bacterial and fungal biofilm (assay not told apart); type: cell-based; conditions: in vitro testing
Procedure: (§1) Two types of biofilm assays were performed: an inhibition assay and a disruption assay. The inhibition assay assesses the compound's ability to prevent biofilm development, while the disruption assay assesses the compound's ability to break up an existing mature biofilm.
(§2) All bacterial biofilm solutions were prepared in Tryptic Soy Broth (TSB), supplemented with 1% glucose (henceforth referred to as TSB-G). All subsequent procedures were performed in a manner that maintained sterility. A solution of each amino acid or an amino acid derivative to be tested was prepared in weight to volume concentrations ranging from 0.1-5.0%. Amino acids and amino acid derivatives were also tested in combinations. Compound solutions were homogenized with gentle agitation in the dark (4° C., 24 hours) before use.
(§3) 32 Amino acids and 2 amino acid derivatives of the amino acid serine that occur freely in human blood were tested. […] 31 of the 32 amino acids that were tested were the L-Isomers. Glycine has no stereoisomers. The 2 amino acid derivatives, ethanolamine and phosphoethanolamine were also tested. All biofilm assays were performed using 384-well non-tissue culture-treated polystyrene plates. The fungal species tested are as follows: Candida albicans, Candida guilliermondii, Candida parapsilosis, Candida glabrata, Candida tropicalis and Candida dubliniensis. The bacterial species tested are as follows: Staphylococci (standard wild type and methicillin-resistant strain USA300), Escherichia coli, Pseudomonas aeruginosa and Staphylococcus epidermidis.
(§4) Fungal strains were streaked on Yeast Peptone Dextrose (YPD) agar plates and incubated at 30° C. for 48 hours. A single colony from each strain to be tested was inoculated into YPD broth and grown for 12 hours at 30° C., shaking at 225 rpm. […] The cells were allowed to adhere to the plate for 90 minutes at 37° C. with shaking (350 rpm). […] The plate was further incubated for 24 hours at 37° C. with shaking (350 rpm). Media was carefully aspirated and the biofilm was measured by optical density at 600 nm. […] The cells were allowed to adhere to the plate for 90 minutes at 37° C. with shaking (350 rpm). […] The plate was further incubated for 24 hours at 37° C. with shaking (350 rpm). […] The plate was further incubated for 24 hours at 37° C. with shaking (350 rpm). Media was carefully aspirated, and the biofilm was measured by optical density at 600 nm.
(§5) Bacterial strains were streaked on Blood Agar plates (5% sheep blood in Tryptic Soy Broth) and incubated at 37° C. for 24 hours. A single colony from each strain to be tested was inoculated in a TSB broth and grown for 12 hours, at 37° C. with shaking (225 rpm). For the bacterial biofilm inhibition assays, 1 μL of saturated overnight cell culture was added to either 80 μL of TSB-G, or TSB-G supplemented with the amino acid compound solution to be tested, in a 384-well plate. The cells were allowed to adhere to the plate for 60 minutes at 37° C. without shaking. The media was carefully aspirated and 80 μL of TSB-G, or TSB-G supplemented with the amino acid compound solution was added to the plate. The plate was further incubated for 24 hours at 37° C. without shaking. Media was carefully aspirated and the biofilm was measured by optical density at 600 nm. Eight or twelve replicates were performed for each tested condition and the reported values are normalized to the control (TSB-G media only). For the bacterial biofilm disruption assays, 80 µL of TSB-G was added to the plate, along with 1 μL of overnight cell culture. The cells were allowed to adhere to the plate for 60 minutes at 37° C. with no shaking. The media was carefully aspirated and 80 μL of TSB-G was added to the plate. The plate was further incubated for 24 hours at 37° C. with no shaking. Media was carefully aspirated from the mature biofilm and 80 μL of TSB-G, or TSB-G supplemented with the amino acid to be tested, was gently added to the plate.

[2] = system: fungal biofilm (C. albicans); assay: Fungal biofilm disruption assay; type: cell-based, Candida albicans
Procedure: as §1, §2, §3, §4

bacterial biofilm = assay: In vitro testing on bacterial biofilm (inhibition and/or disruption); type: cell-based; conditions: in vitro testing
Procedure: as §1, §2, §3
(§6) Bacterial strains were streaked on Blood Agar plates (5% sheep blood in Tryptic Soy Broth) and incubated at 37° C. for 24 hours. A single colony from each strain to be tested was inoculated in a TSB broth and grown for 12 hours, at 37° C. with shaking (225 rpm). For the bacterial biofilm inhibition assays, 1 μL of saturated overnight cell culture was added to either 80 μL of TSB-G, or TSB-G supplemented with the amino acid compound solution to be tested, in a 384-well plate. The cells were allowed to adhere to the plate for 60 minutes at 37° C. without shaking. The media was carefully aspirated and 80 μL of TSB-G, or TSB-G supplemented with the amino acid compound solution was added to the plate. The plate was further incubated for 24 hours at 37° C. without shaking. Media was carefully aspirated and the biofilm was measured by optical density at 600 nm. Eight or twelve replicates were performed for each tested condition and the reported values are normalized to the control (TSB-G media only). For the bacterial biofilm disruption assays, 80 µL of TSB-G was added to the plate, along with 1 μL of overnight cell culture. The cells were allowed to adhere to the plate for 60 minutes at 37° C. with no shaking. The media was carefully aspirated and 80 μL of TSB-G was added to the plate. The plate was further incubated for 24 hours at 37° C. with no shaking. Media was carefully aspirated from the mature biofilm and 80 μL of TSB-G, or TSB-G supplemented with the amino acid to be tested, was gently added to the plate. The plate was further incubated for 24 hours at 37° C. without shaking. Media was aspirated and the biofilm was measured by optical density at 600 nm. Twelve replicates were performed for each tested condition and the reported values are normalized to the control (TSB-G media only).

[3] = system: bacterial (S. aureus) biofilm and fungal biofilm (C. albicans); assay: Biofilm inhibition assay, bacterial and fungal taken together; type: cell-based; conditions: symbol marks the assay
Procedure: as §1, §2, §3, §4, §5

[4] = system: bacterial (S. aureus) biofilm; assay: Bacterial biofilm inhibition assay; type: cell-based, Staphylococcus aureus
Procedure: as §1, §2, §3, §6

[5] = system: bacterial (S. aureus) biofilm; assay: Bacterial biofilm disruption assay; type: cell-based, Staphylococcus aureus
Procedure: as §1, §2, §3, §6

fungal biofilm = assay: In vitro testing on fungal biofilm (inhibition and/or disruption); type: cell-based; conditions: in vitro testing
Procedure: as §1, §2, §3, §4

[6] = Table F, in the presence of a sufficient concentration of glycerol
[7] = Table D, Neutral = no effect on the biofilm
[8] = Table E, in the absence of an infusion of glycerol

| Compound | Reduce or Inhibit F Biofilm (dots: Disruption Biofilm Assay) ([2]; Table D, 0.1 to 5.0%) | effect on bacterial biofilm (in words) (bacterial biofilm) | Neutral (square: Inhibition Biofilm Assay) [3, 7] | Neutral (square: Inhibition Biofilm Assay) [3, 8] | Neutral (square: Inhibition Biofilm Assay) [3, 6] | Reduce or Inhibit B Biofilm (dots: Disruption Biofilm Assay) ([5]; Table D, 0.1 to 5.0%) | Reduce or Inhibit B Biofilm (dots: Disruption Biofilm Assay) [5, 6] | further results |
| --- | --- | --- | --- | --- | --- | --- | --- | --- |
| N[C@@H](Cc1ccc(O)cc1)C(=O)O [Tyrosine, L-tyrosine] |  |  |  |  |  |  |  | effect on bacterial and fungal biofilm (in words) [1]: neutral effect on biofilm; effect on bacterial and fungal biofilm (in words) ([1]; listed as tyrosine): neutral, having no effect on biofilm |
| N[C@@H](CO)C(=O)O [Serine, L-serine] | ● (Single dot [ie. ●] signifies little effect on the Disruption Biofilm Assay (from about 10 to less than 30%)) | promoted bacterial biofilm formation |  |  |  |  |  | Reduce or Inhibit F Biofilm (dots: Disruption Biofilm Assay) [2, 6]: ● (Single dot [ie. ●] signifies little effect on the Disruption Biofilm Assay (from about 10 to less than 30%)) |
| C[C@H](N)C(=O)O [Alanine, L-alanine] | ● (Single dot [ie. ●] signifies little effect on the Disruption Biofilm Assay (from about 10 to less than 30%)) | promoted bacterial biofilm formation | ▪ (Single square [ie. ▪] signifies little effect on the Inhibition Biofilm Assay (from about 10 to less than 30%)) | ▪ (Single square [ie. ▪] signifies little effect on the Inhibition Biofilm Assay (from about 10 to less than 30%)) | ▪ (Single square [ie. ▪] signifies little effect on the Inhibition Biofilm Assay (from about 10 to less than 30%)) |  |  |  |
| NC(CCCC(=O)O)C(=O)O (stereo not shown) [2 Aminoadipic Acid, 2-aminoadipic acid] |  | antibacterial biofilm effect |  |  |  | ● (Single dot [ie. ●] signifies little effect on the Disruption Biofilm Assay (from about 10 to less than 30%)) | ● (Single dot [ie. ●] signifies little effect on the Disruption Biofilm Assay (from about 10 to less than 30%)) | Reduce or Inhibit B Biofilm (squares: Inhibition Biofilm Assay) ([4]; Table D, 0.1 to 5.0%): ▪ (Single square [ie. ▪] signifies little effect on the Inhibition Biofilm Assay (from about 10 to less than 30%)); Reduce or Inhibit B Biofilm (squares: Inhibition Biofilm Assay) [4, 6]: ▪ (Single square [ie. ▪] signifies little effect on the Inhibition Biofilm Assay (from about 10 to less than 30%)) |
| N[C@@H](CCS)C(=O)O [Homocysteine, L-homocysteine] |  |  |  |  |  |  |  | effect on fungal biofilm (in words) (fungal biofilm): antifungal biofilm effects |
| N[C@@H](Cc1c[nH]c2ccccc12)C(=O)O [Tryptophan, L-tryptophan] | ● (Single dot [ie. ●] signifies little effect on the Disruption Biofilm Assay (from about 10 to less than 30%)) | promoted bacterial biofilm formation |  |  |  |  |  | Reduce or Inhibit F Biofilm (dots: Disruption Biofilm Assay) [2, 6]: ● (Single dot [ie. ●] signifies little effect on the Disruption Biofilm Assay (from about 10 to less than 30%)) |
| CC(C)C[C@H](N)C(=O)O [Leucine, L-leucine] |  | promoted bacterial biofilm formation |  |  |  |  |  | Promote B Biofilm (squares: Inhibition Biofilm Assay) ([4]; Table D, 0.1 to 5.0%): ▪ (Single square [ie. ▪] signifies little effect on the Inhibition Biofilm Assay (from about 10 to less than 30%)); Promote B Biofilm (squares: Inhibition Biofilm Assay) [4, 8]: ▪ (Single square [ie. ▪] signifies little effect on the Inhibition Biofilm Assay (from about 10 to less than 30%)) |
| NCCOP(=O)(O)O [Phospho-ethanolamine, phosphoethanolamine] |  | antibacterial biofilm effect |  |  |  | ● (Single dot [ie. ●] signifies little effect on the Disruption Biofilm Assay (from about 10 to less than 30%)) | ● (Single dot [ie. ●] signifies little effect on the Disruption Biofilm Assay (from about 10 to less than 30%)) | Reduce or Inhibit B Biofilm (squares: Inhibition Biofilm Assay) ([4]; Table D, 0.1 to 5.0%): ▪ (Single square [ie. ▪] signifies little effect on the Inhibition Biofilm Assay (from about 10 to less than 30%)); Reduce or Inhibit B Biofilm (squares: Inhibition Biofilm Assay) [4, 6]: ▪ (Single square [ie. ▪] signifies little effect on the Inhibition Biofilm Assay (from about 10 to less than 30%)) |
| N[C@@H](Cc1c[nH]cn1)C(=O)O [Histidine, L-histidine] |  |  | ▪ (Single square [ie. ▪] signifies little effect on the Inhibition Biofilm Assay (from about 10 to less than 30%)) | ▪ (Single square [ie. ▪] signifies little effect on the Inhibition Biofilm Assay (from about 10 to less than 30%)) | ▪ (Single square [ie. ▪] signifies little effect on the Inhibition Biofilm Assay (from about 10 to less than 30%)) |  |  | effect on bacterial and fungal biofilm (in words) [1]: neutral, having no effect on biofilm; also recorded: neutral |
| N[C@@H](CCSC[C@H](N)C(=O)O)C(=O)O [Cystathionine, L-cystathionine] |  | antibacterial biofilm effect | ▪ (Single square [ie. ▪] signifies little effect on the Inhibition Biofilm Assay (from about 10 to less than 30%)) | ▪ (Single square [ie. ▪] signifies little effect on the Inhibition Biofilm Assay (from about 10 to less than 30%)) | ▪ (Single square [ie. ▪] signifies little effect on the Inhibition Biofilm Assay (from about 10 to less than 30%)) | ● (Single dot [ie. ●] signifies little effect on the Disruption Biofilm Assay (from about 10 to less than 30%)) | ● (Single dot [ie. ●] signifies little effect on the Disruption Biofilm Assay (from about 10 to less than 30%)) |  |
